How the values were obtained:
[1] = tested on: PAIGB expression; experiment: Northern blot of PAIGB in rat tibia RNA; format: in vivo; conditions: intermittent PTH
Procedure: Isolated RNA was run on 1.2% agorase gel in 1×MOPS ((3-[N-morpholino]propanesulfonic acid) buffer) and formaldehyde. RNA gel was run in 1×MOPS (Sigma). RNA was transferred on nylon membrane (S&S) using Turbo-blot according to instruction provided by manufacturer (S&S). RADE fragment(s) as well as GAPDH or ciclophylin were labeled using random prime labeling kit (Gibco, BRL) according to provided instructions. Hybridization with labeled probes was performed using ExpressHyb (Sigma), at 68° C. over night. Blots were washed 2 times at room temperature for 15 min in low stringency buffer (2×SSC, 0.1% SDS), and 1 time at 65° C. for 15 min in […]. Blots were exposed over night using Kodak film.
In order to confirm the results from RADE experiments data, Northern blot analysis was done on RNA samples from rat tibia after intermittent and continuous PTH injections. […] In addition a multiple tissue northern blot was performed on the samples provided by commercially available blots. The northern blot analysis indicated very abundant expression of PAIGB in brain, but little expression in heart and lung.

[2] = tested on: PAIGB expression in ROS 17/2.8 cells; experiment: Real time PCR of PAIGB expression in ROS 17/2.8 cells; format: cell-based, rat; conditions: 10 nM
Description: Applicants performed multiplex real time PCR (TaqMan) analysis on previously DNAsed samples using gene specific probe and primers and 18S ribosomal RNA probe and primer sets purchased from Applied Biosystem. (Foster City, Calif.) The samples were DNAsed according to the protocol provided by Ambion (DNA-free kit). TaqMan probe and primers for PAIGB was identify using Primer Express computer program. The sequence for rat PAIGB TaqMan probe was 6FAM-5′[…] (SEQ ID NO: 16) forward and reverse primers were 5′[…] 3′ (SEQ ID NO:17) and 5′ […] 3′ (SEQ ID NO:18) respectively. The final concentrations for probes were 500 nM and 40 nM for PAIGB and 18S ribosomal RNA or GAPDH respectively. The concentrations of the primers were 500 nM for PAIGB forward and reversed primers while 18S primers were 10 and 20 nM for forward and reversed primer respectively or 40 nM for GAPDH primers. Standards for rat samples were made from rat tibia or brain RNA in the range of 250 ng to 0.1 ng, while standards for mouse specific TaqMan were made from mouse brain RNA and human standards from human brain RNA (Clonetech, Palo Alto, Calif.) spanning the same range of concentration. Primers and probes for mouse PAIGB were: forward 5′ […] 3′ (SEQ ID NO:19), reverse, 5′ […] (SEQ ID NO:21). Primers and probes for human PAIGB were: forward 5′ […] 3′ (SEQ ID NO:22), reverse 5′ […] 3′(SEQ ID NO: 24). The Taq-man analysis was done using ABI 7700 Sequence Detector under following conditions: 30 min at 48° C., 10 min at 95° C. and 40 cycles of 15 sec at 95° C. and 60 sec at 60° C. Analysis of real-time PCR analysis was performed using (Sequence Detector, Macintosh) program.
Five cell types were primarily used in our experiments. Rat osteoblast cell line (ROS 17/2.8) that expresses moderate levels of PTH receptor 1 (Rodan et al, Rev. Eukaryotic Gene Expression 1:85-98, 1991) were used to perform in vitro experiments. ROS cells were maintained under standard cell culture conditions: 10% heat inactivated FBS in Dulbecco's Modified Eagle Medium with Nutrient Mixture F-12 (DMEM/F12) media, 1% Penicillin/Streptomycin and 1% Glutamax. Mouse cell line C3H10T½ (ATCC# CCL226) as a representative of mouse osteoprogenitor cell line were maintained in Eagles Minimal Essential Media (EMEM) with the addition of 10% heat inactivated FBS and 1% Penicillin/Streptomycin and 1% Glutamax. UMR106 rat osteoblastic cells (ATCC# CRL1661) were cultured in Dulbecco's Modified Eagle Medium (DMEM) supplemented with 10% heat inactivated FBS, 1% Penicillin/Streptomycin and 1% Glutamax. The U2OS human osteoblastic cells (ATCC# HTB96) were cultured in McCoy's 5A Medium Modified supplemented with 10% FBS, 1% Penicillin/Streptomycin and 1% Glutamax. The human HOB-03-CE6 cell line (Bodine, V. N. P., et. al., J. Cell. Biochem., 65: 368-387,1997) was maintained in phenol red free DMEM/F12 media supplemented with 10% heat inactivated FBS and 1% Penicillin/Streptomycin and 1% Glutamax.
ROS 17/2.8 rat osteoblast cell line that express PTH receptor (˜80000 receptors/cell) were treated with increased doses of PTH: 1 nM, 10 nM, 100 nM and 1000 nM. Real time PCR using rat specific Taq-man probes and primers were used to examine the changes in PAIGB expression with PTH treatment.
Time course of PTH induction of PAIGB expression was examined. ROS 17/2.8_cells were treated with 10 nM PTH and RNA was harvested at 1, 2, 4, 6, 8 and 24 hours post treatment.

With human PTH (1-34) as the substance, how does the “increase of PAIGB expression vs vehicle (phosphor-imager, Northern blot)” value [1] read?
Its value is 36 fold.

What about the “PAIGB message with increasing concentrations” value ([2]; 1 nM, 100 nM and 1000 nM) of the same substance?
Its value is “dose-dependent increase”.

What about the “maximal increase of PAIGB expression” value ([2]; 4 hours time point) of the same substance?
The value was 2.66+/−0.3.

And the “effect on PAIGB expression 8 hours post treatment” value ([2]; 8 hours)?
Its value is “completely abolished”.

What about the “induction of PAIGB expression” value ([2]; data not shown) of the same substance?
The value was 6 fold.

— patent US7258999B2, “PTH responsive gene” (Wyeth, priority 2002, dated 2007)
